Measurements taken from EP1270000A2, “Benzoic acid substituted benzopyrans for the treatment of atherosclerosis” (Pfizer Products Inc., priority 2001, dated 2003).

Assays:
129E^-/- = test: Lesion analysis (Oil red O, aortic sinus and valve) in atherosclerotic mice; format: in vivo; set-up: Lesion size: unit not given here; settings: chow diet; for Sinus (% lesion) / Valve (%lesion): 129E^-/-, F, mean ±SD
Source text: (§1) Mouse line derivation. Genetically modified apolipoprotein E-deficient (ApoE^-/-), low density lipoprotein (LDL) receptor-deficient (LDLr^-/-), and monocyte chemoattractant protein-1-deficient (MCP-1^-/-) mice used in the present study have been previously described and characterized [See Rutledge, B.J. et. al., J. Immunol., 1995;155:4838-4843; and Nakashima Y, et. al., Arterioscler. Thromb., 1994;14(1):133-140]. To obtain mice homozygous for both the apoE and MCP-1 (ScyA2) null alleles, male ApoE^-/- mice on a C57B/6 background (C57E^- ^/-) were mated with heterozygous female MCP-1^-/+ mice on a C57B/6 background. The resulting ApoE^-/- x MCP-1^-/+ progeny were identified by Southern blot analysis and inbred to produce ApoE^-/- x MCP-1^-/- (C57E^-/- x MCP-1 ^-/-) and control ApoE ^-/- x MCP-1^+/+ (C57E-/-) mice. ApoE^-/- mice on the mixed genetic background 1290la x C57B/6 (129E^-/-) were bred in-house and derived from brother and sister matings. All mice were weaned at 21 days, maintained on a 12 hour light/dark cycle and fed either a chow or a Western-type diet [See, Bourassa, P.K., et. al., Proc Natl Acad. Sci. USA, 1996;93:10022-10027].
(§2) Administration of Compound. Compound of formula I, preferably (3S, 4R)-7-(2-carboxy-5-trifluoromethylphenyl)-4-hydroxy-3-benzyl-3,4-dihydro-2H-1-benzopyran, was evaluated for its effects on lesion development in age-matched groups of mice (15 to 30 weeks of age at time of sacrifice) using a 35 day treatment protocol. Subgroups of mice were treated with (3S, 4R)-7-(2-carboxy-5-trifluoromethylphenyl)-4-hydroxy-3-benzyl-3,4-dihydro-2H-1-benzopyran for shorter times (7-14 days) for evaluation of acute changes in tissue gene expression as noted in the table and figure legends. In all study groups, the compound was administered by oral gavage once daily in a vehicle comprised of 0.6% Tween 80 + 0.25% methylcellulose in PBS. […]
(§3) Lesion Analysis. To determine cross-sectional lesion area, hearts were perfusion-fixed in 4% paraformaldehyde, infiltrated with 30% gum sucrose for 24 hours at 4°C, and embedded in OCT compound and sectioned 10µm, -18°C, as previously described [See Borgeat P., et.al., J. Biol. Chem., 1979;254:2643-2646] and the sections were stained with Oil red O (Polyscientific, Bay Shore NY) and counterstained with Gill III hematoxylin (Sigma, St. Louis MO). Each section of the aortic valve was evaluated for Oil red O staining area by capturing images directly from a RGB camera attached to a Leitz Laborlux S (Leica) light microscope for display on a Trinitron RGB monitor. Image analysis was performed using ImagePro 3.1' software as described previously [See Bourassa, P.K., et. al., Proc Natl. Acad. Sci. USA, 1996;93:10022-10027]. Results are expressed as the average lesion size per section or as the percent of the total cross sectional vessel wall stained with Oil red O. For each animal, the average lesion area of 12-16 sections was determined and data are expressed as lesion size or mean percent lesion area ±S.D.
Referring to Table 2, Apolipoprotein E-deficient mice on a mixed 129Io/B6 (129E^-/-) or a C57BI/6 background (C57E^-/-), mice homozygous low density lipoprotein receptor deficient mice LDLR^-/- mice were treated for 35 days orally with (3S, 4R)-7-(2-carboxy-5-trifluoromethylphenyl)-4-hydroxy-3-benzyl-2H-1-benzopyran) at doses indicated. LDLR^-/- was fed a Western diet; all other strains were maintained on chow diet. The mean percent lesion area in 10 µ sections of the aortic sinus and valve region was calculated following oil red O staining, Values are reported as means ±SD. The term "ND" is defined as Not Determined. The term "TPC" is defined as Total Plasma Cholesterol. The term "TG" is defined as Triglycerides. The term "sinus" is defined as a region of the aortic válve; moving up from the base of the heart; which begins at the first appearance of the aortic valve cusps, dividing the lumen into three distinct regions. In the sinus, the aortic wall is bulging and irregular. […]

C57E^-/- = test: as above; format: in vivo; settings: 100 mg/kg orally 35 days, chow diet, mean ±SD
Source text: as §1
as §2, with “legends.” for “legends. In all study groups, the compound was administered by oral gavage once daily in a vehicle comprised of 0.6% Tween 80 + 0.25% methylcellulose in PBS.”
(§4) Lesion Analysis. […] Each section of the aortic valve was evaluated for Oil red O staining area by capturing images directly from a RGB camera attached to a Leitz Laborlux S (Leica) light microscope for display on a Trinitron RGB monitor. […] Results are expressed as the average lesion size per section or as the percent of the total cross sectional vessel wall stained with Oil red O. For each animal, the average lesion area of 12-16 sections was determined and data are expressed as lesion size or mean percent lesion area ±S.D.
Referring to Table 2, Apolipoprotein E-deficient mice on a mixed 129Io/B6 (129E^-/-) or a C57BI/6 background (C57E^-/-), mice homozygous low density lipoprotein receptor deficient mice LDLR^-/- mice were treated for 35 days orally with (3S, 4R)-7-(2-carboxy-5-trifluoromethylphenyl)-4-hydroxy-3-benzyl-2H-1-benzopyran) at doses indicated. […] The mean percent lesion area in 10 µ sections of the aortic sinus and valve region was calculated following oil red O staining, Values are reported as means ±SD. The term "ND" is defined as Not Determined. […]

LDLr^-/- = test: as above; format: in vivo; set-up: Lesion size: unit not given here
Source text: as §1
Administration of Compound. Compound of formula I, preferably (3S, 4R)-7-(2-carboxy-5-trifluoromethylphenyl)-4-hydroxy-3-benzyl-3,4-dihydro-2H-1-benzopyran, was evaluated for its effects on lesion development in age-matched groups of mice (15 to 30 weeks of age at time of sacrifice) using a 35 day treatment protocol. […]
as §4, with “±S.D. […]” for “±S.D.”

MCP-1 ^-/- X ApoE^-/- = test: Lesion analysis (Oil red O, aortic sinus and valve) in MCP-1 deficient mice; format: in vivo; settings: M, mean ±SD
Source text: as §1
(§5) Administration of Compound. Compound of formula I, preferably (3S, 4R)-7-(2-carboxy-5-trifluoromethylphenyl)-4-hydroxy-3-benzyl-3,4-dihydro-2H-1-benzopyran, was evaluated for its effects on lesion development in age-matched groups of mice (15 to 30 weeks of age at time of sacrifice) using a 35 day treatment protocol. Subgroups of mice were treated with (3S, 4R)-7-(2-carboxy-5-trifluoromethylphenyl)-4-hydroxy-3-benzyl-3,4-dihydro-2H-1-benzopyran for shorter times (7-14 days) for evaluation of acute changes in tissue gene expression as noted in the table and figure legends. In all study groups, the compound was administered by oral gavage once daily in a vehicle comprised of 0.6% Tween 80 + 0.25% methylcellulose in PBS. Mice received either vehicle alone, 30mg/kg/day, or 100mg/kg/day of compound of formula I.
as §3
Referring to Table 4, mice homozygous for the null alleles of Monocyte chemoattractant protein-1 (MCP-1^-/-) and apolipoprotein E (ApoE^-/-) (MCP-1 ^-/- X ApoE^-/-) on a C57bl/6 background (C57E^-/-) mice were treated for 35 days orally with (3S, 4R)-7-(2-carboxy-5-trifluoromethylphenyl)-4-hydroxy-3-benzyl-2H-1-benzopyran) at doses indicated 0, 30 or 100mg/kg. The mean percent lesion area in 10 µ sections of the aortic sinus and valve region was calculated following oil red O staining, Values are reported as means ±SD. The term "ND" is defined as Not Determined. The term "TPC" is defined as Total Plasma Cholesterol. The term "TG" is defined as Triglycerides. The term "sinus" is defined as a region of the aortic valve; moving up from the base of the heart; which begins at the first appearance of the aortic valve cusps, dividing the lumen into three distinct regions. […]

[1] = Body weight of treated mice; format: in vivo
Protocol: as §2

CD11b = test: Immunohistochemical staining of macrophages (CD11b) in atherosclerotic lesions; format: in vivo, mice; settings: 30 mg/kg/d orally for 35 days, mean ± SD, N=8/group
Protocol: as §5
Immunohistochemical Staining of Macrophages. Serial paraformaldehyde fixed, OCT embedded sections of aortic valves were immunostained for macrophages using rat monoclonal antibodies (IgG2b) against MOMA-2 (BioSource) and CD11b (Pharmingen). Endogenous biotin and peroxidase activity were blocked by incubating each section with an avidin/biotin solution (Vector Laboratories), and 0.3% H2O2 in 1% bovine serum, respectively. […] Results are expressed as the percent of the total cross-sectional vessel wall area (normal + diseased area/ section, excluding the lumen) stained with DAB. […]

[2] = 15 wks, 30 mg/kg orally 35 days
[3] = 15 wks, 50 mg/kg orally 35 days
[4] = 15 wks, 100 mg/kg orally 35 days
[5] = 20 wks, 30 mg/kg orally 35 days
[6] = 24 wks, 100 mg/kg orally 35 days
[7] = LDLr^-/-, M, 18 wks, 30 mg/kg orally 35 days, Western diet, mean ±SD
[8] = 30 wks, 30 mg/kg orally 35 days
[9] = 30 wks, 100 mg/kg orally 35 days

SMILES: O=C(O)c1ccc(C(F)(F)F)cc1-c1ccc2c(c1)OC[C@H](Cc1ccccc1)[C@H]2O [(3S, 4R)-7-(2-carboxy-5-trifluoromethylphenyl)-4-hydroxy-3-benzyl-3,4-dihydro-2H-1-benzopyran]
- Sinus (% lesion) (129E^-/-; [2]): 19.6±2%
- Valve (%lesion) (129E^-/-; [2]): 21.6±2%
- Sinus (% lesion) (129E^-/-; [3]): 14.7±2 %
- Valve (%lesion) (129E^-/-; [3]): 16.3±2 %
- Sinus (% lesion) (129E^-/-; [4]): 7.9±1 %
- Valve (%lesion) (129E^-/-; [4]): 8.0±2 %
- Sinus (% lesion) (129E^-/-; [5]): 24.4±3%
- Valve (%lesion) (129E^-/-; [5]): 25.9±3 %
- Sinus (% lesion) (129E^-/-; [6]): 30.0±1%
- Valve (%lesion) (129E^-/-; [6]): 34.0±1%
- Lesion size (129E^-/-; female 129E^-/-, 30 mg/kg/d orally for 35 days, mean ± SD, N=8/group): 10650±12133
- Sinus (% lesion) (C57E^-/-; F, 22 wks): 38.8±3%
- Valve (%lesion) (C57E^-/-; F, 22 wks): 39±2%
- Sinus (% lesion) (C57E^-/-; M, 16 wks): 10.4±3 %
- Valve (%lesion) (C57E^-/-; M, 16 wks): 7.8±2 %
- Sinus (% lesion) (LDLr^-/-; [7]): 5.6±2 %
- Valve (%lesion) (LDLr^-/-; [7]): 6.5±3 %
- Lesion size (LDLr^-/-; male LDLr^-/-, Western-type diet, 30 mg/kg/d orally for 35 days, mean ± SD, N=8/group): 19955±7278
- Sinus (% lesion) (MCP-1 ^-/- X ApoE^-/-; [2]): 13.3±2%
- Valve (%lesion) (MCP-1 ^-/- X ApoE^-/-; [2]): 12.8±2%
- Sinus (% lesion) (MCP-1 ^-/- X ApoE^-/-; [4]): 9.8±1%
- Valve (%lesion) (MCP-1 ^-/- X ApoE^-/-; [4]): 9.7±1%
- Sinus (% lesion) (MCP-1 ^-/- X ApoE^-/-; [8]): 41.4±5%
- Valve (%lesion) (MCP-1 ^-/- X ApoE^-/-; [8]): 54.2±7%
- Sinus (% lesion) (MCP-1 ^-/- X ApoE^-/-; [9]): 43.1±5%
- Valve (%lesion) (MCP-1 ^-/- X ApoE^-/-; [9]): 50.0±4%
- Body wt(gm) ([1]; 129E^-/-, F, 15 wks, 30 mg/kg orally 35 days, chow diet): 26±2 gm
- Body wt(gm) ([1]; 129E^-/-, F, 15 wks, 50 mg/kg orally 35 days, chow diet): 25±2 gm
- Body wt(gm) ([1]; 129E^-/-, F, 15 wks, 100 mg/kg orally 35 days, chow diet): 25±1 gm
- Body wt(gm) ([1]; 129E^-/-, F, 20 wks, 30 mg/kg orally 35 days, chow diet): 29±1 gm
- Body wt(gm) ([1]; 129E^-/-, F, 24 wks, 100 mg/kg orally 35 days, chow diet): 31±1 gm
- Body wt(gm) ([1]; C57E^-/-, F, 22 wks, 100 mg/kg orally 35 days, chow diet): 30 gm
- Body wt(gm) ([1]; C57E^-/-, M, 16 wks, 100 mg/kg orally 35 days, chow diet): 29±1 gm
- Body wt(gm) ([1]; LDLr^-/-, M, 18 wks, 30 mg/kg orally 35 days, Western diet): 31±2 gm
- Body wt(gm) ([1]; MCP-1 ^-/- X ApoE^-/-, M, 15 wks, 30 mg/kg orally 35 days): 29±1 gm
- Body wt(gm) ([1]; MCP-1 ^-/- X ApoE^-/-, M, 15 wks, 100 mg/kg orally 35 days): 29±1 gm
- Body wt(gm) ([1]; MCP-1 ^-/- X ApoE^-/-, M, 30 wks, 30 mg/kg orally 35 days): 31±1 gm
- Body wt(gm) ([1]; MCP-1 ^-/- X ApoE^-/-, M, 30 wks, 100 mg/kg orally 35 days): 26±1 gm
- % CD11b (mean percent of the lesion staining positively for CD11b) (CD11b; female 129E^-/-, chow diet): 3.5±1.0 %
- % CD11b (mean percent of the lesion staining positively for CD11b) (CD11b; male LDLr^-/-, Western-type diet): 3.5±2.5 %
